# According to ChEMBL document CHEMBL3885881, “DrugMatrix”:
# Organism: Rattus norvegicus
# Assay: DrugMatrix - Regimen: Daily Repeat
# Type: toxicity, organism-based, Sprague-Dawley
# Design: regimen Daily Repeat, gender Male, age 6-8 weeks
# Settings: in vivo, po, route oral GAVAGE, vehicle .5 % CMC; for ABSOLUTE BASOPHIL / ABSOLUTE EOSINOPHIL / ABSOLUTE LYMPHOCYTE / ABSOLUTE MONOCYTE / ABSOLUTE SEGMENTED NEUTROPHIL / BASOPHIL / EOSINOPHIL / ERYTHROCYTE COUNT / HEMATOCRIT / HEMOGLOBIN / LEUKOCYTE COUNT / LYMPHOCYTE / MEAN CORPUSCULAR HEMOGLOBIN / MEAN CORPUSCULAR HEMOGLOBIN CONCENTRATION / MEAN CORPUSCULAR VOLUME / MONOCYTE / NEUTROPHIL / NUCLEATED RED BLOOD CELLS / PLATELET COUNT: tissue Blood; for ALANINE AMINOTRANSFERASE / ALBUMIN / ALKALINE PHOSPHATASE / ASPARTATE AMINOTRANSFERASE / BLOOD UREA NITROGEN / CARBON DIOXIDE / CHLORIDE / CHOLESTEROL / CREATINE PHOSPHOKINASE / CREATININE / GLUCOSE / LACTATE DEHYDROGENASE / LIPASE / PHOSPHORUS / POTASSIUM / SODIUM / TOTAL BILIRUBIN / TOTAL PROTEIN / URIC ACID: tissue Plasma
# [1] = 2 mg/kg, 72 h, dose level Low, time 3 day
# [2] = 2 mg/kg, 120 h, dose level Low, time 5 day
# [3] = 83 mg/kg, 72 h, dose level High, time 3 day
# [4] = 83 mg/kg, 120 h, dose level High, time 5 day
smiles,measurement,setting,value
Nc1cc(N2CCCCC2)nc(N)[n+]1[O-] [MINOXIDIL],ABSOLUTE BASOPHIL,[1],0 CELLS/uL
same,ABSOLUTE EOSINOPHIL,[1],0 CELLS/uL
same,ABSOLUTE LYMPHOCYTE,[1],9089 CELLS/uL
same,ABSOLUTE MONOCYTE,[1],42.33 CELLS/uL
same,ABSOLUTE SEGMENTED NEUTROPHIL,[1],735.33 CELLS/uL
same,BASOPHIL,[1],0%
same,EOSINOPHIL,[1],0%
same,ERYTHROCYTE COUNT,[1],4.78 x10E6/uL
same,HEMATOCRIT,[1],30.6%
same,HEMOGLOBIN,[1],12.57 G/DL
same,LEUKOCYTE COUNT,[1],9.87 x10E3/uL
same,LYMPHOCYTE,[1],92%
same,MEAN CORPUSCULAR HEMOGLOBIN,[1],26.3 pg
same,MEAN CORPUSCULAR HEMOGLOBIN CONCENTRATION,[1],41.1 G/DL
same,MEAN CORPUSCULAR VOLUME,[1],64.07 fL
same,MONOCYTE,[1],0.33%
same,NEUTROPHIL,[1],7.67%
same,NUCLEATED RED BLOOD CELLS,[1],0 /100WBC
same,PLATELET COUNT,[1],1041 x10E3/uL
same,ALANINE AMINOTRANSFERASE,[1],50.33 u/L
same,ALBUMIN,[1],4.3 G/DL
same,ALKALINE PHOSPHATASE,[1],415 u/L
same,ASPARTATE AMINOTRANSFERASE,[1],94.33 u/L
same,BLOOD UREA NITROGEN,[1],18 mg/dL
same,CARBON DIOXIDE,[1],35.33 mmol/L
same,CHLORIDE,[1],100.67 MEQ/L
same,CHOLESTEROL,[1],74.67 mg/dL
same,CREATINE PHOSPHOKINASE,[1],368.67 u/L
same,CREATININE,[1],0.23 mg/dL
same,GLUCOSE,[1],127.67 mg/dL
same,LACTATE DEHYDROGENASE,[1],159 u/L
same,LIPASE,[1],10 u/L
same,PHOSPHORUS,[1],11.3 mg/dL
same,POTASSIUM,[1],6.23 MEQ/L
same,SODIUM,[1],147.5 MEQ/L
same,TOTAL BILIRUBIN,[1],0.1 mg/dL
same,TOTAL PROTEIN,[1],6.03 G/DL
same,URIC ACID,[1],0.93 mg/dL
same,ABSOLUTE BASOPHIL,[2],0 CELLS/uL
same,ABSOLUTE EOSINOPHIL,[2],0 CELLS/uL
same,ABSOLUTE LYMPHOCYTE,[2],14468 CELLS/uL
same,ABSOLUTE MONOCYTE,[2],213.67 CELLS/uL
same,ABSOLUTE SEGMENTED NEUTROPHIL,[2],818.33 CELLS/uL
same,BASOPHIL,[2],0%
same,EOSINOPHIL,[2],0%
same,ERYTHROCYTE COUNT,[2],5.34 x10E6/uL
same,HEMATOCRIT,[2],33.6%
same,HEMOGLOBIN,[2],13.27 G/DL
same,LEUKOCYTE COUNT,[2],15.5 x10E3/uL
same,LYMPHOCYTE,[2],93.33%
same,MEAN CORPUSCULAR HEMOGLOBIN,[2],24.8 pg
same,MEAN CORPUSCULAR HEMOGLOBIN CONCENTRATION,[2],39.47 G/DL
same,MEAN CORPUSCULAR VOLUME,[2],62.9 fL
same,MONOCYTE,[2],1.33%
same,NEUTROPHIL,[2],5.33%
same,NUCLEATED RED BLOOD CELLS,[2],0 /100WBC
same,PLATELET COUNT,[2],1308.33 x10E3/uL
same,ALANINE AMINOTRANSFERASE,[2],52 u/L
same,ALBUMIN,[2],4.33 G/DL
same,ALKALINE PHOSPHATASE,[2],362.67 u/L
same,ASPARTATE AMINOTRANSFERASE,[2],78.67 u/L
same,BLOOD UREA NITROGEN,[2],18 mg/dL
same,CARBON DIOXIDE,[2],33 mmol/L
same,CHLORIDE,[2],102 MEQ/L
same,CHOLESTEROL,[2],75.33 mg/dL
same,CREATINE PHOSPHOKINASE,[2],156.33 u/L
same,CREATININE,[2],0.2 mg/dL
same,GLUCOSE,[2],153 mg/dL
same,LACTATE DEHYDROGENASE,[2],135.67 u/L
same,LIPASE,[2],8.67 u/L
same,PHOSPHORUS,[2],14.1 mg/dL
same,POTASSIUM,[2],6.87 MEQ/L
same,SODIUM,[2],146.73 MEQ/L
same,TOTAL BILIRUBIN,[2],0.27 mg/dL
same,TOTAL PROTEIN,[2],6.27 G/DL
same,URIC ACID,[2],1.43 mg/dL
same,ABSOLUTE BASOPHIL,[3],0 CELLS/uL
same,ABSOLUTE EOSINOPHIL,[3],0 CELLS/uL
same,ABSOLUTE LYMPHOCYTE,[3],11593 CELLS/uL
same,ABSOLUTE MONOCYTE,[3],0 CELLS/uL
same,ABSOLUTE SEGMENTED NEUTROPHIL,[3],1707 CELLS/uL
same,BASOPHIL,[3],0%
same,EOSINOPHIL,[3],0%
same,ERYTHROCYTE COUNT,[3],4.83 x10E6/uL
same,HEMATOCRIT,[3],30.37%
same,HEMOGLOBIN,[3],12.7 G/DL
same,LEUKOCYTE COUNT,[3],13.3 x10E3/uL
same,LYMPHOCYTE,[3],87.67%
same,MEAN CORPUSCULAR HEMOGLOBIN,[3],26.3 pg
same,MEAN CORPUSCULAR HEMOGLOBIN CONCENTRATION,[3],41.83 G/DL
same,MEAN CORPUSCULAR VOLUME,[3],62.8 fL
same,MONOCYTE,[3],0%
same,NEUTROPHIL,[3],12.33%
same,NUCLEATED RED BLOOD CELLS,[3],0 /100WBC
same,PLATELET COUNT,[3],1119.33 x10E3/uL
same,ALANINE AMINOTRANSFERASE,[3],40.33 u/L
same,ALBUMIN,[3],4.27 G/DL
same,ALKALINE PHOSPHATASE,[3],346.33 u/L
same,ASPARTATE AMINOTRANSFERASE,[3],73.67 u/L
same,BLOOD UREA NITROGEN,[3],18.33 mg/dL
same,CARBON DIOXIDE,[3],30.33 mmol/L
same,CHLORIDE,[3],103.33 MEQ/L
same,CHOLESTEROL,[3],70.33 mg/dL
same,CREATINE PHOSPHOKINASE,[3],164 u/L
same,CREATININE,[3],0.15 mg/dL
same,GLUCOSE,[3],140 mg/dL
same,LACTATE DEHYDROGENASE,[3],144 u/L
same,LIPASE,[3],9.33 u/L
same,PHOSPHORUS,[3],12.47 mg/dL
same,POTASSIUM,[3],6.31 MEQ/L
same,SODIUM,[3],145.1 MEQ/L
same,TOTAL BILIRUBIN,[3],0.17 mg/dL
same,TOTAL PROTEIN,[3],5.67 G/DL
same,URIC ACID,[3],1.33 mg/dL
same,ABSOLUTE BASOPHIL,[4],0 CELLS/uL
same,ABSOLUTE EOSINOPHIL,[4],0 CELLS/uL
same,ABSOLUTE LYMPHOCYTE,[4],12306 CELLS/uL
same,ABSOLUTE MONOCYTE,[4],270 CELLS/uL
same,ABSOLUTE SEGMENTED NEUTROPHIL,[4],990.67 CELLS/uL
same,BASOPHIL,[4],0%
same,EOSINOPHIL,[4],0%
same,ERYTHROCYTE COUNT,[4],5.12 x10E6/uL
same,HEMATOCRIT,[4],32.97%
same,HEMOGLOBIN,[4],13.17 G/DL
same,LEUKOCYTE COUNT,[4],13.57 x10E3/uL
same,LYMPHOCYTE,[4],90.67%
same,MEAN CORPUSCULAR HEMOGLOBIN,[4],25.77 pg
same,MEAN CORPUSCULAR HEMOGLOBIN CONCENTRATION,[4],39.93 G/DL
same,MEAN CORPUSCULAR VOLUME,[4],64.53 fL
same,MONOCYTE,[4],2%
same,NEUTROPHIL,[4],7.33%
same,NUCLEATED RED BLOOD CELLS,[4],0.33 /100WBC
same,PLATELET COUNT,[4],1460 x10E3/uL
same,ALANINE AMINOTRANSFERASE,[4],52.33 u/L
same,ALBUMIN,[4],4.33 G/DL
same,ALKALINE PHOSPHATASE,[4],352.67 u/L
same,ASPARTATE AMINOTRANSFERASE,[4],78.67 u/L
same,BLOOD UREA NITROGEN,[4],18 mg/dL
same,CARBON DIOXIDE,[4],34.67 mmol/L
same,CHLORIDE,[4],100.67 MEQ/L
same,CHOLESTEROL,[4],77.33 mg/dL
same,CREATINE PHOSPHOKINASE,[4],322.67 u/L
same,CREATININE,[4],0.29 mg/dL
same,GLUCOSE,[4],137 mg/dL
same,LACTATE DEHYDROGENASE,[4],304 u/L
same,LIPASE,[4],11 u/L
same,PHOSPHORUS,[4],11.17 mg/dL
same,POTASSIUM,[4],6.32 MEQ/L
same,SODIUM,[4],143.43 MEQ/L
same,TOTAL BILIRUBIN,[4],0.23 mg/dL
same,TOTAL PROTEIN,[4],5.9 G/DL
same,URIC ACID,[4],1.43 mg/dL
